Reference: US8754242B2, “Herbicides” (Syngenta Crop Protection LLC, priority 2007, dated 2014)

Columns and labels:
Format in all cases: in vivo
winter wheat 'Hereward' = test: Test Example 2 post-emergence crop injury, alone and with cloquintocet-mexyl; settings: Adigor 0.5%, 2-3 leaf seedlings, assessed 14-21 days after application
Description: (§1) Test compounds were applied post-emergence at 60 g ai/ha, alone and in combination with cloquintocet-mexyl at 60 g ai/ha; the adjuvant Adigor (0.5%) was included for every treatment. The application volume was […]. Target plants were 2-3 leaf seedlings of winter wheat ‘Hereward’ and winter barley ‘Antoniya’ grown in a greenhouse under ambient conditions. Assessments were made at 14-21 days after application.

winter barley 'Antoniya' = test: as above; settings: Adigor 0.5%, 2-3 leaf seedlings, assessed 14-21 days after application
Description: as §1

Lolium perenne (LOLPE) [1] = test: Test Example 1 post-emergence herbicidal activity; settings: rate 125 g/ha, evaluated 15 days later
Outline: (§2)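 Greenhouse pot test; spray application pre-emergence (1 d after sowing) or post-emergence (10 d growth). Rating 0–100% damage; pre read at 20 d, post at 15 d.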

Avena fatua (AVEFA) [2] = test: Test Example 1 post-emergence herbicidal activity; settings: rate 125 g/ha, evaluated 15 days later
Outline: as §2

[3] = system: Digitaria sanguinalis (DIGSA); test: Test Example 1 post-emergence herbicidal activity; settings: rate 125 g/ha, evaluated 15 days later
Outline: as §2

Setaria faberi (SETFA) [4] = test: Test Example 1 post-emergence herbicidal activity; settings: rate 125 g/ha, evaluated 15 days later
Outline: as §2

[5] = system: Echinochloa crus-galli (ECHCG); test: Test Example 1 post-emergence herbicidal activity; settings: rate 125 g/ha, evaluated 15 days later
Outline: as §2

[6] = system: Alopecurus myosuroides (ALOMY); test: Test Example 1 post-emergence herbicidal activity; settings: rate 125 g/ha, evaluated 15 days later
Outline: as §2

wheat = test: Test Example 3 crop injury of T1 alone and with safeners; settings: safener (if any) at 1:1, 2-3 leaf stage, assessed 14-21 days after application
Description: (§3) The test compound T1 was applied at 100 and 200 g ai/ha, alone and in combination with a range of safeners as 1:1 mixtures (for example at 100 g+100 g; 200 g+200 g) to the test plants—wheat and maize—at the 2-3 leaf stage. A 4-way safener mixture (cloquintocet-mexyl, benoxacor, fluxofenim and compound A*) was also applied with the test compound so that each safener was used a 1:1 ratio (for example at 100+100+100+100+100 g ai/ha). Assessments were made at 14-21 days after application.

maize = test: as above; settings: safener (if any) at 1:1, 2-3 leaf stage, assessed 14-21 days after application
Description: as §3

Lolium perenne (LOLPE) [7] = test: Test Example 1 pre-emergence herbicidal activity; settings: rate 250 g/ha, evaluated 20 days later
Outline: as §2

Avena fatua (AVEFA) [8] = test: Test Example 1 pre-emergence herbicidal activity; settings: rate 250 g/ha, evaluated 20 days later
Outline: as §2

[9] = system: Digitaria sanguinalis (DIGSA); test: Test Example 1 pre-emergence herbicidal activity; settings: rate 250 g/ha, evaluated 20 days later
Outline: as §2

Setaria faberi (SETFA) [10] = test: Test Example 1 pre-emergence herbicidal activity; settings: rate 250 g/ha, evaluated 20 days later
Outline: as §2

[11] = system: Echinochloa crus-galli (ECHCG); test: Test Example 1 pre-emergence herbicidal activity; settings: rate 250 g/ha, evaluated 20 days later
Outline: as §2

[12] = system: Alopecurus myosuroides (ALOMY); test: Test Example 1 pre-emergence herbicidal activity; settings: rate 250 g/ha, evaluated 20 days later
Outline: as §2

[13] = compound 60 g/ha in combination with cloquintocet-mexyl 60 g/ha
[14] = compound 60 g/ha, cloquintocet-mexyl 0 g/ha

**Q.** What does the source list for `CCc1cc(C)cc(CC)c1C1=C(O)[C@H]2[C@@H](C1=O)[C@@H]1CC[C@H]2O1` [Example T1]?
**A.** Crop Injury (%) Wheat (winter wheat 'Hereward'; [13]): 18%; Crop Injury (%) Wheat (winter wheat 'Hereward'; [14]): 85%; Crop Injury (%) Barley (winter barley 'Antoniya'; [13]): 73%; Crop Injury (%) Barley (winter barley 'Antoniya'; [14]): 99%; Post-emergence activity LOLPE (100=total damage to plant; 0=no damage to plant) (Lolium perenne (LOLPE) [1]): 80; Post-emergence activity AVEFA (100=total damage to plant; 0=no damage to plant) (Avena fatua (AVEFA) [2]): 90; Post-emergence activity DIGSA (100=total damage to plant; 0=no damage to plant) [3]: 100; Post-emergence activity SETFA (100=total damage to plant; 0=no damage to plant) (Setaria faberi (SETFA) [4]): 100; Post-emergence activity ECHCG (100=total damage to plant; 0=no damage to plant) [5]: 100; Post-emergence activity ALOMY (100=total damage to plant; 0=no damage to plant) [6]: 90; Wheat Injury (%) 100 g/ha (wheat; T1 at 100 g ai/ha): 83%; Wheat Injury (%) 200 g/ha (wheat; T1 at 200 g ai/ha): 92%; Maize Injury (%) 100 g/ha (maize; T1 at 100 g ai/ha): 90%; Maize Injury (%) 200 g/ha (maize; T1 at 200 g ai/ha): 100%; Pre-emergence activity LOLPE (100=total damage to plant; 0=no damage to plant) (Lolium perenne (LOLPE) [7]): 100; Pre-emergence activity AVEFA (100=total damage to plant; 0=no damage to plant) (Avena fatua (AVEFA) [8]): 100; Pre-emergence activity DIGSA (100=total damage to plant; 0=no damage to plant) [9]: 100; Pre-emergence activity SETFA (100=total damage to plant; 0=no damage to plant) (Setaria faberi (SETFA) [10]): 100; Pre-emergence activity ECHCG (100=total damage to plant; 0=no damage to plant) [11]: 100; Pre-emergence activity ALOMY (100=total damage to plant; 0=no damage to plant) [12]: 100

**Q.** With `Cc1cc(C)c(C2=C(O)[C@H]3[C@@H](C2=O)[C@@H]2CC[C@H]3O2)c(C)c1` [Example T3] as the compound, how does the “Crop Injury (%) Wheat” value (winter wheat 'Hereward'; [13]) read?
**A.** 0%

**Q.** What about the “Crop Injury (%) Wheat” value (winter wheat 'Hereward'; [14]) of the same compound?
**A.** 28%

**Q.** And the “Crop Injury (%) Barley” value (winter barley 'Antoniya'; [13])?
**A.** 5%

**Q.** What about the “Crop Injury (%) Barley” value (winter barley 'Antoniya'; [14]) of the same compound?
**A.** 5%

**Q.** And the pest or weed control at 125 g/ha (Lolium perenne (LOLPE) [1]; 360 h, read-out: Post-emergence activity LOLPE (100=total damage to plant; 0=no damage to plant))?
**A.** 60%

**Q.** What about the pest or weed control at 125 g/ha (Avena fatua (AVEFA) [2]; 360 h, read-out: Post-emergence activity AVEFA (100=total damage to plant; 0=no damage to plant)) of the same compound?
**A.** 30%

**Q.** What about the pest or weed control at 125 g/ha ([3]; 360 h, read-out: Post-emergence activity DIGSA (100=total damage to plant; 0=no damage to plant)) of the same compound?
**A.** 100%

**Q.** What about the pest or weed control at 125 g/ha (Setaria faberi (SETFA) [4]; 360 h, read-out: Post-emergence activity SETFA (100=total damage to plant; 0=no damage to plant)) of the same compound?
**A.** 90%

**Q.** What about the pest or weed control at 125 g/ha ([5]; 360 h, read-out: Post-emergence activity ECHCG (100=total damage to plant; 0=no damage to plant)) of the same compound?
**A.** 100%

**Q.** And the pest or weed control at 125 g/ha ([6]; 360 h, read-out: Post-emergence activity ALOMY (100=total damage to plant; 0=no damage to plant))?
**A.** 60%

**Q.** What about the pest or weed control at 250 g/ha (Lolium perenne (LOLPE) [7]; Lolium perenne, 480 h, read-out: Pre-emergence activity LOLPE (100=total damage to plant; 0=no damage to plant)) of the same compound?
**A.** 100%

**Q.** And the pest or weed control at 250 g/ha (Avena fatua (AVEFA) [8]; Avena fatua, 480 h, read-out: Pre-emergence activity AVEFA (100=total damage to plant; 0=no damage to plant))?
**A.** 80%

**Q.** And the pest or weed control at 250 g/ha ([9]; Digitaria sanguinalis, 480 h, read-out: Pre-emergence activity DIGSA (100=total damage to plant; 0=no damage to plant))?
**A.** 80%

**Q.** And the pest or weed control at 250 g/ha (Setaria faberi (SETFA) [10]; Setaria faberi, 480 h, read-out: Pre-emergence activity SETFA (100=total damage to plant; 0=no damage to plant))?
**A.** 70%

**Q.** And the pest or weed control at 250 g/ha ([11]; Echinochloa crus-galli, 480 h, read-out: Pre-emergence activity ECHCG (100=total damage to plant; 0=no damage to plant))?
**A.** 100%

**Q.** What about the pest or weed control at 250 g/ha ([12]; Alopecurus myosuroides, 480 h, read-out: Pre-emergence activity ALOMY (100=total damage to plant; 0=no damage to plant)) of the same compound?
**A.** 90%
